Values joined by “and” are separate entries in the source; they are usually repeats but may differ in a detail not shown here. Equal values may be shown once.
Columns and labels:
[1] = tested on: H526 cells; experiment: MTT cell growth assay, H526; type: cell-based, human; conditions: 5 days
Experimental: Fig. 2 NHWD-870 inhibited BRD4 phosphorylation and c-MYC expression, and suppressed cell growth. a Representative western blot analysis of p-BRD4 (s484/488), BRD4, c-MYC, and GAPDH after treatment of MDA-MB231, SUM159, A2780 ES-2, and H526 cells with JQ-1 or NHWD-870 at the indicated concentrations for 24 h. GAPDH served as the loading control. Selected from three independent experiments. b MTT assays of H526, A2780, ES-2, and MDA-MB231 cells treated with JQ-1 or NHWD-870 at the indicated concentrations for 5 days. Data are presented as mean ± SEM from three independent experiments. c, d Clonogenic assays of H526, A2780, ES-2 and MDA-MB231 cells treated with 250 nM JQ-1 or NHWD-870 for 5 days. Shown are representative images (c) and quantification of colonies (d). […] Shown are representative images (e) and quantification of relative colony sizes (f). Scale bar, 50 μm. Data are presented as mean ± SEM from five independent experiments. p values were calculated using two-tailed, unpaired t tests in this figure. **p < 0.01; ***p < 0.001. Source data are provided as a Source Data file.
37℃, 5% CO2. […]

[2] = Metabolic stability assay, human liver microsomes; conditions: for Remaining in Human liver microsomes (Sup Fig.6e): in % (unit assumed)
Experimental: 7. Metabolic stability assay. The metabolic profile of NHWD-870 was determined using mouse, rat, dog, monkey, and human liver microsomes using the protocols […]
No. Compound ID Exat Mass Stock Conc.
1) 100 mM potassium phosphate buffer, PH7.4; 2) 10mM MgCI2
1) Intermediate solution: Dilute 5 μL of compound or control from stock solution (10 mM) with 45 uL DMSO,then mixed with 450 μL 1:1 Methanol/Water (Conc.: 10 0 […]
2) Working solution: Dilute 50 μL from intermediate solution with 450 μL 100 mM potassium phosphate buffer (Conc.: 10 μM, 4.5%MeOH)
(3) NADPH regenerating system (final Isocitric dehydrogenase conc.= 1 unit/mL at […]
1) β-Nicotinamide adenine dinucleotide phosphate, Vendor: sigma Cat. No. N0505
2) Isocitric acid, Vendor: Sigma Cat. No. I1252
3) Isocitric dehydrogenase, Vendor: sigma Cat. No. I2002
(4) Liver microsome solution preparation (final concentration o f 0.5 mg protein/mL) […]
Cold ACN including 100 ng/mL Tolbutamide and 100 ng/mL Labetalol as internal […]
1) Add 10 μL compound or control working solution/well to all plates (T0, T5, T10, T20, T30, T60, NCF60) except matrix blank.
2) Dispense 680 μL/well microsome solution to 96-well plate as reserv oir according to […]
plate map. Then add 80 μL/well to every plate by Apricot, incubate the mixture of microsome solution and compound at 37℃ for about 10 min.
3) Add 10 μL 100 mM potassium phosphate buffer/well to NCF60, incubate at 37℃, […]
4) After pre-warming, dispense 90 μL/well NADPH regenerating system to 96-well plate as reservoir according to the plate map. Then add 10 μL/well to every plate by Apricot to start reaction.
5) Incubate at 37℃, start timer 2.
6) Add 300 (μL/well) stop solution (cold in 4℃, including 100 ng/mL Tolbutamide and 100 ng/mL Labetalol) to terminate the reaction.
7) The sampling plates are shaked for approx 10 min.
8) Samples are centrifuged at 4000 rpm for 20 min under 4℃.
9) While centrifuging, load 8×new 96-well plate with 300 μL HPLC water, then transfer 100 μL supernatant, mixed for LC/MS/MS.
Use equation of first order kinetics to calculate t1/2 and Clin t(mic): […]
Equation of first order kinetics: […]

[3] = human, liver microsomes, pH 7.4

## Cc1nnn(C)c1-c1cnc2c3c4cnn(C)c4ccc3n([C@H](c3ccccc3)C3CCOCC3)c2c1 [NHWD-870]
[1]; H526, 0.1 nM
  MTT assay, relative cell number: 0.977 and 0.969 and 0.948
[1]; H526, 1 nM
  MTT assay, relative cell number: 0.658 and 0.633 and 0.625
[1]; H526, 10 nM
  MTT assay, relative cell number: 0.268 and 0.226 and 0.235
[1]; H526, 100 nM
  MTT assay, relative cell number: 0.103 and 0.115 and 0.127
[1]; H526, 500 nM
  MTT assay, relative cell number: 0
[1]; H526, 1000 nM
  MTT assay, relative cell number: 0
[1]; H526, 5000 nM
  MTT assay, relative cell number: 0
[1]; H526, 10000 nM
  MTT assay, relative cell number: 0
[2]; human liver microsomes
  Remaining (T=60min): 23.6%
[2]; human liver microsomes, no cofactor
  Remaining (*NCF=60min): 74.4%
[2]; [3]
  CLint scaled at 1 µM: 45.3 mL/min/kg
  half-life at 1 µM: 27.6 min
[2]; human, microsomes, pH 7.4
  microsomal CLint at 1 µM: 50.3 µL/min/mg
[2]; mouse, rat, dog, monkey, human, liver microsomes, pH 7.4
  half-life at 1 µM: 21 to 39 min
[2]; time 0
  Remaining in Human liver microsomes (Sup Fig.6e): 100
[2]; time 5
  Remaining in Human liver microsomes (Sup Fig.6e): 96.274
[2]; time 10
  Remaining in Human liver microsomes (Sup Fig.6e): 76.421
[2]; time 20
  Remaining in Human liver microsomes (Sup Fig.6e): 52.125
[2]; time 30
  Remaining in Human liver microsomes (Sup Fig.6e): 39.904
[2]; time 60
  Remaining in Human liver microsomes (Sup Fig.6e): 23.628

Source: paper PMC7156724, “Potent BRD4 inhibitor suppresses cancer cell-macrophage interaction” (Nature Communications, 2020)
